The record followed here is patent US20120083522A1, “MODULATION OF INFLAMMATORY RESPONSES BY FACTOR XI” (Isis Pharmaceuitcals, inc., priority 2009, published 2012).

In the oligonucleotide strings, read from the 5' end, every base follows the letter of its sugar. An asterisk marks phosphorothioate; unmarked linkages are phosphodiester. Other units and linkages are bracketed, terminal groups are in braces. A string of capitals states the bases alone. e = 2'-O-(2-methoxyethyl) (MOE); [5mC] = 5-methylcytosine; d = 2'-deoxy (DNA)

The term % inhibition denotes the relative decrease from the control value, in per cent. Higher therefore signals a response far below the control.

One data set relates to human Factor XI mRNA. In words: Antisense inhibition in HepG2 cells by microwalk gapmers, 75 nM, lipofectin (Example 3). Conditions: HepG2, 75 nM, approximately 24 hours, nucleobases 656 to 704 of SEQ ID NO: 1. The class given is cell-based. The protocol:
These gapmers were designed by creating gapmers shifted slightly upstream and downstream (i.e. “microwalk”) of the original gapmers from Table 3. Gapmers were also created with various motifs, e.g. 5-10-5 MOE, 3-14-3 MOE, and 2-13-5 MOE. These gapmers were tested in vitro. Cultured HepG2 cells at a density of 10,000 cells per well were transfected using lipofectin reagent with 75 nM antisense oligonucleotide. After a treatment period of approximately 24 hours, RNA was isolated from the cells and Factor XI mRNA levels were measured by quantitative real-time PCR. Factor XI mRNA levels were adjusted according to total RNA content, as measured by RIBOGREEN®. Results are presented as percent inhibition of Factor XI, relative to untreated control cells.
The chimeric antisense oligonucleotides in Table 4 were designed as 5-10-5 MOE, 3-14-3 MOE, and 2-13-5 MOE gapmers. The first listed gapmers in Table 4 are the original gapmers (see Table 3) from which the remaining gapmers were designed via microwalk and are designated by an asterisk. The 5-10-5 gapmers are 20 nucleotides in length, wherein the central gap segment is comprised of 10 2′-deoxynucleotides and is flanked on both sides (in the 5′ and 3′ directions) by wings comprising 5 nucleotides each. The 3-14-3 gapmers are 20 nucleotides in length, wherein the central gap segment is comprised of 14 2′-deoxynucleotides and is flanked on both sides (in the 5′ and 3′ directions) by wings comprising 3 nucleotides each. The 2-13-5 gapmers are 20 nucleotides in length, wherein the central gap segment is comprised of 13 2′-deoxynucleotides. The central gap is flanked on the 5′ end with a wing comprising 2 nucleotides and on the 3′ end with a wing comprising 5 nucleotides. For each of the motifs (5-10-5, 3-14-3, and 2-13-5), each nucleotide in the 5′ wing segment and each nucleotide in the 3′ wing segment has a 2′-MOE modification. The internucleoside linkages throughout each gapmer are phosphorothioate (P═S) linkages. All cytidine residues throughout each gapmer are 5-methylcytidines. “Target start site” indicates the 5′-most nucleotide to which the gapmer is targeted. “Target stop site” indicates the 3′-most nucleotide to which the gapmer is targeted. Each gapmer listed in Table 4 is targeted to SEQ ID NO: 1 (GENBANK Accession No. NM_000128.3).
For “416894 (antisense eA*eT*eG*d[5mC]*d[5mC]*d[5mC]*dT*dT*d[5mC]*dA*dT*dG*dT*d[5mC]*dT*dA*dG*eG*eT*e[5mC]) [compound 416894]”, the “% inhibition” value came to 84%.

The data set is the same for the next values; noted with them: HepG2 cells, 75 nM, oligonucleotides targeted to nucleobases 738 to 762 of SEQ ID NO: 1.
Turning to “416900 (antisense eA*eT*e[5mC]*d[5mC]*dG*dT*dG*d[5mC]*dA*dT*d[5mC]*dT*dT*dT*d[5mC]*dT*dT*eG*eG*e[5mC]) [compound 416900]”, the “% inhibition of human Factor XI mRNA levels” value is 90%.
For the substance “416903 (antisense eG*eT*e[5mC]*dA*dT*d[5mC]*d[5mC]*dG*dT*dG*d[5mC]*dA*dT*d[5mC]*dT*dT*dT*e[5mC]*eT*eT) [compound 416903]”, the “% inhibition of human Factor XI mRNA levels” value came to 88%.
As to “416978 (antisense e[5mC]*eA*dT*d[5mC]*d[5mC]*dG*dT*dG*d[5mC]*dA*dT*d[5mC]*dT*dT*dT*e[5mC]*eT*eT*eG*eG) [compound 416978]”, the “% inhibition of human Factor XI mRNA levels” value stood at 76%.
On the same count and under the same terms, under “416979 (antisense eT*e[5mC]*dA*dT*d[5mC]*d[5mC]*dG*dT*dG*d[5mC]*dA*dT*d[5mC]*dT*dT*eT*e[5mC]*eT*eT*eG) [compound 416979]” stands 63%.
Turning to “416833 (antisense eT*e[5mC]*eA*eT*e[5mC]*d[5mC]*dG*dT*dG*d[5mC]*dA*dT*d[5mC]*dT*dT*eT*e[5mC]*eT*eT*eG) [compound 416833]”, the “% inhibition of human Factor XI mRNA levels” value is on record as 65%.
Still for that read-out and setting: under “416901 (antisense e[5mC]*eA*eT*d[5mC]*d[5mC]*dG*dT*dG*d[5mC]*dA*dT*d[5mC]*dT*dT*dT*d[5mC]*dT*eT*eG*eG) [compound 416901]” stands 65%; under “416976 (antisense eT*e[5mC]*d[5mC]*dG*dT*dG*d[5mC]*dA*dT*d[5mC]*dT*dT*dT*d[5mC]*dT*eT*eG*eG*e[5mC]*eA) [compound 416976]”, 83%; under “416899 (antisense eT*e[5mC]*e[5mC]*dG*dT*dG*d[5mC]*dA*dT*d[5mC]*dT*dT*dT*d[5mC]*dT*dT*dG*eG*e[5mC]*eA) [compound 416899]”, 86%.

The data set is the same for the next values; noted with them: HepG2 cells, 75 nM, oligonucleotides targeted to nucleobases 1018 to 1042 of SEQ ID NO: 1.
“416906 (antisense eA*eA*e[5mC]*d[5mC]*dG*dG*dG*dA*dT*dG*dA*dT*dG*dA*dG*dT*dG*e[5mC]*eA*eG) [compound 416906]”: the “% inhibition of human Factor XI mRNA levels” value is 88%.
The same measure, in the same setting: under “416835 (antisense eA*e[5mC]*e[5mC]*eG*eG*dG*dA*dT*dG*dA*dT*dG*dA*dG*dT*eG*e[5mC]*eA*eG*eA) [compound 416835]” stands 83%; under “416983 (antisense eA*eA*d[5mC]*d[5mC]*dG*dG*dG*dA*dT*dG*dA*dT*dG*dA*dG*eT*eG*e[5mC]*eA*eG) [compound 416983]”, 86%.
On the same count and under the same terms, the same measure for “416981 (antisense e[5mC]*e[5mC]*dG*dG*dG*dA*dT*dG*dA*dT*dG*dA*dG*dT*dG*e[5mC]*eA*eG*eA*eT) [compound 416981]”: 87%.
Take “416905 (antisense eA*e[5mC]*e[5mC]*dG*dG*dG*dA*dT*dG*dA*dT*dG*dA*dG*dT*dG*d[5mC]*eA*eG*eA) [compound 416905]”: the “% inhibition of human Factor XI mRNA levels” value worked out at 85%.
For “416982 (antisense eA*e[5mC]*d[5mC]*dG*dG*dG*dA*dT*dG*dA*dT*dG*dA*dG*dT*eG*e[5mC]*eA*eG*eA) [compound 416982]”, the “% inhibition of human Factor XI mRNA levels” value is 84%.

Staying with this data set, now noted: HepG2 cells, 75 nM, oligonucleotides targeted to nucleobases 1062 to 1091 of SEQ ID NO: 1.
For the substance “416846 (antisense eT*eT*e[5mC]*eT*eT*dT*dG*dA*dG*dA*dT*dT*d[5mC]*dT*dT*eT*eG*eG*eG*e[5mC]) [compound 416846]”, the “% inhibition of human Factor XI mRNA levels” value turned out to be 72%.
The same measure, in the same setting: under “416918 (antisense eT*eT*e[5mC]*dT*dT*dT*dG*dA*dG*dA*dT*dT*d[5mC]*dT*dT*dT*dG*eG*eG*e[5mC]) [compound 416918]” stands 63%.
The same measure, in the same setting: the same measure for “416847 (antisense eT*eT*eT*e[5mC]*eT*dT*dT*dG*dA*dG*dA*dT*dT*d[5mC]*dT*eT*eT*eG*eG*eG) [compound 416847]”: 50%.
Still for that read-out and setting: under “416987 (antisense eG*eA*dT*dT*d[5mC]*dT*dT*dT*dG*dG*dG*d[5mC]*d[5mC]*dA*dT*eT*e[5mC]*e[5mC]*eT*eG) [compound 416987]” stands 80%; under “416840 (antisense eA*eG*eA*eT*eT*d[5mC]*dT*dT*dT*dG*dG*dG*d[5mC]*d[5mC]*dA*eT*eT*e[5mC]*e[5mC]*eT) [compound 416840]”, 85%.
Consider “416992 (antisense eT*eT*dT*dG*dA*dG*dA*dT*dT*d[5mC]*dT*dT*dT*dG*dG*eG*e[5mC]*e[5mC]*eA*eT) [compound 416992]”, for which the “% inhibition of human Factor XI mRNA levels” value is recorded as 84%.
The same measure, in the same setting: the same measure for “416910 (antisense eG*eA*eT*dT*d[5mC]*dT*dT*dT*dG*dG*dG*d[5mC]*d[5mC]*dA*dT*dT*d[5mC]*e[5mC]*eT*eG) [compound 416910]”: 90%; for “416914 (antisense eT*eT*eG*dA*dG*dA*dT*dT*d[5mC]*dT*dT*dT*dG*dG*dG*d[5mC]*d[5mC]*eA*eT*eT) [compound 416914]”: 87%; for “416909 (antisense eA*eT*eT*d[5mC]*dT*dT*dT*dG*dG*dG*d[5mC]*d[5mC]*dA*dT*dT*d[5mC]*d[5mC]*eT*eG*eG) [compound 416909]”: 78%.
Still for that read-out and setting: the same measure for “416995 (antisense eT*eT*d[5mC]*dT*dT*dT*dG*dA*dG*dA*dT*dT*d[5mC]*dT*dT*eT*eG*eG*eG*e[5mC]) [compound 416995]”: 64%.

The data set is the same for the next values; noted with them: HepG2 cells, 75 nM, oligonucleotides targeted to nucleobases 1275 to 1318 of SEQ ID NO: 1.
On to “416937 (antisense eG*e[5mC]*eG*dG*dA*d[5mC]*dG*dG*d[5mC]*dA*dT*dT*dG*dG*dT*dG*d[5mC]*eA*e[5mC]*eA) [compound 416937]”, for which the “% inhibition of human Factor XI mRNA levels” value is recorded as 93%.
Same read-out and setting: the same measure for “417017 (antisense eG*e[5mC]*dA*dG*d[5mC]*dG*dG*dA*d[5mC]*dG*dG*d[5mC]*dA*dT*dT*eG*eG*eT*eG*e[5mC]) [compound 417017]”: 82%.
Consider “417004 (antisense eT*eT*dG*dG*dT*dG*d[5mC]*dA*d[5mC]*dA*dG*dT*dT*dT*d[5mC]*eT*eG*eG*e[5mC]*eA) [compound 417004]”, for which the “% inhibition of human Factor XI mRNA levels” value was 86%.
“416933 (antisense eA*e[5mC]*eG*dG*d[5mC]*dA*dT*dT*dG*dG*dT*dG*d[5mC]*dA*d[5mC]*dA*dG*eT*eT*eT) [compound 416933]”: the “% inhibition of human Factor XI mRNA levels” value is on record as 92%.
“417006 (antisense e[5mC]*eA*dT*dT*dG*dG*dT*dG*d[5mC]*dA*d[5mC]*dA*dG*dT*dT*eT*e[5mC]*eT*eG*eG) [compound 417006]”: the “% inhibition of human Factor XI mRNA levels” value came to 81%.
As to “417009 (antisense e[5mC]*eG*dG*d[5mC]*dA*dT*dT*dG*dG*dT*dG*d[5mC]*dA*d[5mC]*dA*eG*eT*eT*eT*e[5mC]) [compound 417009]”, the “% inhibition of human Factor XI mRNA levels” value is recorded as 85%.
On the same count and under the same terms, under “416997 (antisense eA*e[5mC]*dA*dG*dT*dT*dT*d[5mC]*dT*dG*dG*d[5mC]*dA*dG*dG*e[5mC]*e[5mC]*eT*e[5mC]*eG) [compound 416997]” stands 84%; under “417015 (antisense eA*eG*d[5mC]*dG*dG*dA*d[5mC]*dG*dG*d[5mC]*dA*dT*dT*dG*dG*eT*eG*e[5mC]*eA*e[5mC]) [compound 417015]”, 87%; under “416929 (antisense e[5mC]*eA*eT*dT*dG*dG*dT*dG*d[5mC]*dA*d[5mC]*dA*dG*dT*dT*dT*d[5mC]*eT*eG*eG) [compound 416929]”, 83%.
As to “417008 (antisense eG*eG*d[5mC]*dA*dT*dT*dG*dG*dT*dG*d[5mC]*dA*d[5mC]*dA*dG*eT*eT*eT*e[5mC]*eT) [compound 417008]”, the “% inhibition of human Factor XI mRNA levels” value is 82%.
In the case of “416943 (antisense e[5mC]*eT*eG*dG*d[5mC]*dA*dG*d[5mC]*dG*dG*dA*d[5mC]*dG*dG*d[5mC]*dA*dT*eT*eG*eG) [compound 416943]”, the “% inhibition of human Factor XI mRNA levels” value amounted to 92%.
